{"source": "patent US20240117431A1", "about": "“STEM-CELL BASED BIOMARKER DISCOVERY” (THE REGENTS OF THE UNIVERSITY OF CALIFORNIA, priority 2020, published 2024)", "biological_target": "T1, Methionine-tRNA Synthetase L272G (MethL272G) iPSCs (Homo sapiens, UniProt P56192, L272G)", "T1 construct": "Using CRISPR gene editing, this locus was successfully modified in a human iPSC line; endogenous in cells; host or cells: human iPSC line ADRC 76, CRISPR-edited", "T1 sequence (P56192 1-900 L272G)": "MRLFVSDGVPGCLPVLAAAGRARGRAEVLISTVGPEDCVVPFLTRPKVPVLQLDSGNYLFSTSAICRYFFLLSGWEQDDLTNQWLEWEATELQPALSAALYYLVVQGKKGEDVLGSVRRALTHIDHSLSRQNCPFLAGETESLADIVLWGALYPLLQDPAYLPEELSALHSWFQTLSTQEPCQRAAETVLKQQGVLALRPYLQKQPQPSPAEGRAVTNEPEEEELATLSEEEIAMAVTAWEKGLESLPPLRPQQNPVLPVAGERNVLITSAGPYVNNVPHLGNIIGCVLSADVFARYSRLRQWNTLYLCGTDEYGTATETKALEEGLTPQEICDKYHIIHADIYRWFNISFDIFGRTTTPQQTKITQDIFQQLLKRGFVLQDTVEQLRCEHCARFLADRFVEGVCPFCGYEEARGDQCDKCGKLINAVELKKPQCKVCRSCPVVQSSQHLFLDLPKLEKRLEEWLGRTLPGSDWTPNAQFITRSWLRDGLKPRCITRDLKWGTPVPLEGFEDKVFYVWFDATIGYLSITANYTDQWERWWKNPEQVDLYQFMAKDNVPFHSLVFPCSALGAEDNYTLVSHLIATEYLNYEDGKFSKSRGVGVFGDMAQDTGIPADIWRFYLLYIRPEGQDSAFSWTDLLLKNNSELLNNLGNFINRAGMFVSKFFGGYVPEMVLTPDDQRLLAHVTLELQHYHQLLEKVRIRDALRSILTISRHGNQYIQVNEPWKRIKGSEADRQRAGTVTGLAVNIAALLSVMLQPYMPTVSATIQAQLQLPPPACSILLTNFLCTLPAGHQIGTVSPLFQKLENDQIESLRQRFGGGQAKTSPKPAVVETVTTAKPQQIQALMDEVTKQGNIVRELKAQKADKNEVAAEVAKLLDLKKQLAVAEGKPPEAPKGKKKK", "assay": "ANL incorporation into nascent protein of iPSCs (BONCAT western blot, TAMRA confocal microscopy)", "type": "cell-based", "conditions": "1.5 mM ANL, 14 hrs", "protocol": "Validation by Western Blot: Wild-type (WT) and MethL272G iPSCs were cultured in 6-well plate with and without 1.5 mM ANL (Tocris 6585) for 14 hrs in DMEM/F12 Silac media without Methionine (AthenaES 0433) supplemented with TeSR™-E8™ 25× Supplement. (Note: Methionine-absent media is described as Metia below.) Cells were dissociated and collected using TrypLE Express (Gibco 12605028) for 3 min at 37° C., isolated, and lysed in Ripa buffer with Halt Protease Inhibitor Cocktail (ThermoFisher Scientific 78429) and Halt Phosphatase Inhibitor Cocktail (ThermoFisher Scientific 78426). 200 μg of protein was labeled for analysis using Click-iT Protein Analysis TAMRA alkyne Detection Kit (Invitrogen C33370) that tags the azide of ANL incorporated protein with a TAMRA-alkyne tag via the following reaction:\nThe resulting protein pellets were boiled in 120 μl of Loading Buffer and boiled for 15 minutes at 70° C., which were then loaded into a 4-15% Criterion TGX 12-well Gel (Bio-Rad 5671083) for electrophoresis, then transferred to Trans-Blot® Turbo™ Midi Nitrocellulose Membrane (Bio-Rad 1704159) for analysis. Protein was probed with TAMRA Monoclonal Antibody (5G5) (Invitrogen MA1-041) followed by anti-mouse secondary for imaging. […]", "data": [{"smiles": "[N-]=[N+]=NCCCC[C@H](N)C(=O)O", "note": "[ANL, L-azidonorleucine]", "values": [{"measurement": "labeling of cellular protein (TAMRA confocal microscopy)", "setting": "control ADRC76 versus MethL272G iPSCs, FIG. 2A", "result": "labeling of cellular protein only in mutated MethL272G iPSCs"}, {"measurement": "BONCAT labeling of ANL-incorporated protein (western blot)", "setting": "methionine-absent media, FIG. 1B", "result": "successful BONCAT labeling"}]}]}
